# Results from US12581252B2, “Substituted pyrrolo[3,4-b]pyridines as PI3K-α inhibitors” (Relay Therapeutics, Inc., priority 2020, dated 2026).
# Target: H1047R PIK3CA enzyme (Homo sapiens, UniProt P42336, H1047R)
# Test: ADP-Glo Biochemical PIK3CA Kinase Assay
# Sequence of H1047R PIK3CA enzyme (P42336 whole entry H1047R): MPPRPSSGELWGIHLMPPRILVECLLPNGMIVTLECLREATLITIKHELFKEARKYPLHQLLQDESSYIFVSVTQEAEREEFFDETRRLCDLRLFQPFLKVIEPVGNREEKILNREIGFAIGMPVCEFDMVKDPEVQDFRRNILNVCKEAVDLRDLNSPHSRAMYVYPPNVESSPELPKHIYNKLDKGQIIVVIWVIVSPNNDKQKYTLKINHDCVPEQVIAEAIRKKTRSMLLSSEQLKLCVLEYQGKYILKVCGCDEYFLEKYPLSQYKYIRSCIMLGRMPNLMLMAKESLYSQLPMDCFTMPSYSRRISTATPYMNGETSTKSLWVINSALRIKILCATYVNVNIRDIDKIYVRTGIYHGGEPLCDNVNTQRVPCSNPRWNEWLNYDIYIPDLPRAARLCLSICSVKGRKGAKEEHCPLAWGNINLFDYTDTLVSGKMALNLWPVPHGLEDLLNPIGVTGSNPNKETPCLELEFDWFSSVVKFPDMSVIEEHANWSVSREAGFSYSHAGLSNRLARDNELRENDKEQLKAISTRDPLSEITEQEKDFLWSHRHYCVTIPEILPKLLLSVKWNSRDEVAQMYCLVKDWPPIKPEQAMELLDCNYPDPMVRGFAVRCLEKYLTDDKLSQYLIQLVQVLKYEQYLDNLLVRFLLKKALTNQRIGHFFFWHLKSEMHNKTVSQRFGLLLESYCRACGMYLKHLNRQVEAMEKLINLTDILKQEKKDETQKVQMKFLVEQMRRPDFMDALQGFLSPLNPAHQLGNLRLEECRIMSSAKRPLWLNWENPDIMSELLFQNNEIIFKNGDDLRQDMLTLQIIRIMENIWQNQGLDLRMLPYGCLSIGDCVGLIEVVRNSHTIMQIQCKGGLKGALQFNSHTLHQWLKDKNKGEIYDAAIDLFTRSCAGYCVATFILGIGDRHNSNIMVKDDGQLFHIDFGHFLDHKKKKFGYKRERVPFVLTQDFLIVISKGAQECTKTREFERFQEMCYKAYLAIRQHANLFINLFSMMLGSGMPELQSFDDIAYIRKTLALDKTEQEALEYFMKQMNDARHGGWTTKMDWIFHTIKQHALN
# Sequence of H1047R PIK3CA enzyme (P27986 whole entry partner): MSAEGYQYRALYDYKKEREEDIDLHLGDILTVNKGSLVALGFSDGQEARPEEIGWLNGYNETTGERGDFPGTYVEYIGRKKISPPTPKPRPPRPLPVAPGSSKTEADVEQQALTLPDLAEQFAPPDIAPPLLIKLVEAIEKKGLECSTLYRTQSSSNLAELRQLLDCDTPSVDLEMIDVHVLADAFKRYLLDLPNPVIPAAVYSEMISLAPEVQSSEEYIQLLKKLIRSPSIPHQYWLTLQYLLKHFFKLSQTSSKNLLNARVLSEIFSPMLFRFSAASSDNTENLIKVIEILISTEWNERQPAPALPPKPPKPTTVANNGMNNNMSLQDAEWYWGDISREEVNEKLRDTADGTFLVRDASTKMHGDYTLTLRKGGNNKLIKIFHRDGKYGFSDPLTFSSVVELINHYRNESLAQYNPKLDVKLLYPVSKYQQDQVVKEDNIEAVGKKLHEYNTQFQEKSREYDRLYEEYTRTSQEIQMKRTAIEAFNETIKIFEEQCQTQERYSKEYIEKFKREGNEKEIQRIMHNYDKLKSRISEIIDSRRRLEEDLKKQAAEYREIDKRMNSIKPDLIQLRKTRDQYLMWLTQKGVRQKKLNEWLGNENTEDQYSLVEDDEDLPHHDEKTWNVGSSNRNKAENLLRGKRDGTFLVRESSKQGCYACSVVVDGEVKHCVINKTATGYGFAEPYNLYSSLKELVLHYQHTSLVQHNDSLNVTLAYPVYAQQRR
row,SMILES,IC50 [µM]
1,O=C(Nc1cc(-c2ccnc(C(F)F)c2)cc2c1[C@@H](c1cc(F)ccc1Cl)NC2=O)c1cc(F)cc(C(F)(F)F)c1 [Compound I-2002],1 to 10
2,O=C(Nc1cc(Br)cc2c1C(c1cc(F)ccc1Cl)NC2=O)c1cc(F)cc(CC(F)F)c1 (centres unmarked) [Compound I-1745],1 to 10
3,"C[C@H](C#N)Oc1cc(NC(=O)c2cc(F)cc(C(F)(F)F)c2)c2c(c1)C(=O)N[C@H]2c1cc(F)ccc1Cl (single isomer, unassigned) [Compound I-2006]",≤ 0.1
4,Cc1ccccc1[C@@H]1NC(=O)c2nccc(NC(=O)N3CCc4ccccc43)c21 [Compound I-227],0.1 to 0.5
5,"O=C1N[C@@H](c2cc(F)ccc2Cl)c2c(NC(=O)N3CCC[C@](O)(C(F)(F)F)C3)cccc21 (single isomer, unassigned) [Compound I-2115]",10 to 100
6,CN1CCO/C1=N\c1cc(NC(=O)c2cc(F)cc(C(F)(F)F)c2)c2c(c1)C(=O)NC2c1cc(F)ccc1Cl (centres unmarked) [Compound I-2202],0.1 to 0.5
7,Nc1ncc(C#Cc2cc(NC(=O)c3cc(F)cc(C(F)(F)F)c3)c3c(c2)C(=O)NC3c2cc(F)ccc2Cl)cn1 (centres unmarked) [Compound I-1153],≤ 0.1
8,O=C(Nc1cc(Br)cc2c1C(c1cc(F)ccc1Cl)NC2=O)c1cc(F)cc(S(F)(F)(F)(F)F)c1 (centres unmarked) [Compound I-774],≤ 0.1
9,O=C1NC(c2cc(F)ccc2Cl)c2c(OCc3cc(F)cc(C(F)(F)F)c3)cccc21 (centres unmarked) [Compound I-2295],10 to 100
10,Cc1ccccc1C1NC(=O)c2cc(CO)cc(NC(=O)c3cc(F)cc(C(F)(F)F)c3)c21 (centres unmarked) [Compound I-473],≤ 0.1
11,CNC1(c2cc(F)ccc2Cl)NC(=O)c2cc(C[S+](C)[O-])cc(NC(=O)c3cc(F)cc(C(F)(F)F)c3)c21 (centres unmarked) [Compound I-1138],1 to 10
12,O=C1NC(c2cc(F)ccc2Cl)c2c(NC(=O)N3CCc4cc(C(F)(F)F)ccc43)cccc21 (centres unmarked) [Compound I-2436],10 to 100
13,"C[C@H](O)c1cc(-c2ccc3ncnn3c2)cc2c1[C@H](c1cc(F)ccc1Cl)NC2=O (single isomer, unassigned) [Compound I-2229]",10 to 100
14,O=C(Nc1cccc2c1[C@@H](c1cc(F)ccc1C(F)F)NC2=O)c1cc(F)cc(C(F)(F)F)c1 [Compound I-169],1 to 10
15,O=C1N[C@@H](c2cc(F)ccc2Cl)c2c(NC(=O)N3CC[C@H]4CCCC[C@H]43)cccc21 [Compound I-2422],1 to 10
16,O=C(Nc1cc(CN2CCC(F)(F)C2)cc2c1C(c1cc(F)ccc1Cl)NC2=O)c1cc(F)cc(C(F)(F)F)c1 (centres unmarked) [Compound I-353],≤ 0.1
17,CS(=O)(=O)n1cc(-c2cc(NC(=O)c3cc(F)cc(C(F)(F)F)c3)c3c(c2)C(=O)NC3c2cc(F)ccc2Cl)cn1 (centres unmarked) [Compound I-1498],≤ 0.1
18,O=C(Nc1cccc2c1[C@H](C1CCC(F)(F)CC1)NC2=O)c1cc(F)cc(C(F)(F)F)c1 (racemic) [Compound I-1836],10 to 100
19,N#CCOc1ncc(-c2cc(NC(=O)c3cc(F)cc(C(F)(F)F)c3)c3c(c2)C(=O)NC3c2cc(F)ccc2Cl)cn1 (centres unmarked) [Compound I-1530],≤ 0.1
20,O=C(Nc1cccc2c1C(c1cccc(Br)c1)NC2=O)c1cc(F)cc(C(F)(F)F)c1 (centres unmarked) [Compound I-663],10 to 100
21,O=C1N[C@H](c2cc(F)ccc2Cl)c2c(NC(=O)[C@H]3CCCNC3)cc(-c3ccc4ncnn4c3)cc21 (racemic) [Compound I-1848],10 to 100
22,O=C1NC(c2cc(F)ccc2Cl)c2c(NC(=O)N3CCOCC3)cc(Br)cc21 (centres unmarked) [Compound I-576],10 to 100

row,SMILES,IC50 [µM]
1,CS(=O)(=O)c1cc(NC(=O)c2cc(F)cc(C(F)(F)F)c2)c2c(c1)C(=O)NC2(c1cc(F)ccc1Cl)S(=O)(=O)O (centres unmarked) [Compound I-1296],1 to 10
2,"C[C@@H](C#N)Cn1cc(-c2cc(NC(=O)N3C[C@@H](O)c4cc(F)ccc43)c3c(c2)C(=O)N[C@@H]3c2cc(F)ccc2Cl)cn1 (single isomer, unassigned) [Compound I-2504]",1 to 10
3,O=C(Nc1cccc2c1C(CC1CCCCC1)NC2=O)c1cc(F)cc(C(F)(F)F)c1 (centres unmarked) [Compound I-1732],1 to 10
4,O=C1NC(c2cc(F)ccc2Cl)c2c1cc(-c1ccc3ncnn3c1)cc2N1CCn2c(nnc2C(F)(F)F)C1 (centres unmarked) [Compound I-2040],10 to 100
5,CC(O)C1NC(=O)c2cccc(NC(=O)c3cc(F)cc(C(F)(F)F)c3)c21 (centres unmarked) [Compound I-1776],1 to 10
6,CN(C)S(=O)(=O)n1nccc1-c1cc(NC(=O)c2cc(F)cc(C(F)(F)F)c2)c2c(c1)C(=O)N[C@H]2c1cc(F)ccc1Cl [Compound I-1599],≤ 0.1
7,O=C(Nc1cc(-c2cnc(-n3cccn3)nc2)cc2c1C(c1cc(F)ccc1Cl)NC2=O)c1cc(F)cc(C(F)(F)F)c1 (centres unmarked) [Compound I-1483],≤ 0.1
8,O=C(Nc1cc(C(O)COCCO)cc2c1C(c1cc(F)ccc1Cl)NC2=O)c1cc(F)cc(C(F)(F)F)c1 (centres unmarked) [Compound I-1134],0.1 to 0.5
9,CNC(=O)c1cc(-c2ccc3ncnn3c2)cc2c1C(c1cc(F)ccc1Cl)NC2=O (centres unmarked) [Compound I-1846],10 to 100
10,Cc1ncc(-c2cc(NC(=O)c3cc(F)cc(C(F)(F)F)c3)c3c(c2)C(=O)N[C@@H]3c2cc(F)ccc2Cl)cn1 [Compound I-783],1 to 10
11,O=C1NC(c2cc(F)ccc2Cl)c2c(OCc3ccccc3)cc(-c3ccc4ncnn4c3)cc21 (centres unmarked) [Compound I-1955],10 to 100
12,CC(C)(O)Cc1cc(NC(=O)c2cc(F)cc(Cl)c2)c2c(c1)C(=O)N[C@H]2c1cc(F)ccc1Cl [Compound I-963],0.5 to 1
13,Cc1ccccc1C1NC(=O)c2cccc(NC(=O)c3cc(C(F)(F)F)ccc3F)c21 (centres unmarked) [Compound I-369],1 to 10
14,O=C1N[C@H](c2cc(F)ccc2Cl)c2c(NC(=O)c3csc4ccccc34)cc(Br)cc21 [Compound I-733],1 to 10
15,"C[C@@H](C#N)Oc1cc(NC(=O)c2cc(F)cc(C(F)(F)F)c2)c2c(c1)C(=O)N[C@H]2c1cc(F)ccc1Cl (single isomer, unassigned) [Compound I-2009]",≤ 0.1
16,"O=C(Nc1cccc2c1[C@H](C1CCCC[C@@H]1O)NC2=O)c1cc(F)cc(C(F)(F)F)c1 (single isomer, unassigned) [Compound I-2110]",10 to 100
17,"CCC[C@]1(O)CN(C(=O)Nc2cccc3c2[C@H](c2cc(F)ccc2Cl)NC3=O)c2ccc(F)cc21 (single isomer, unassigned) [Compound I-2458]",1 to 10
18,N#Cc1nn(C(F)F)cc1-c1cc(NC(=O)c2cc(F)cc(C(F)(F)F)c2)c2c(c1)C(=O)N[C@@H]2c1cc(F)ccc1Cl [Compound I-1889],1 to 10
19,O=C(Nc1cc(-c2ccc3nccn3n2)cc2c1[C@H](c1cc(F)ccc1Cl)NC2=O)c1cc(F)cc(C(F)(F)F)c1 [Compound I-1332],≤ 0.1
20,O=C(Nc1cc(O)cc2c1C(c1cc(F)ccc1Cl)NC2=O)c1cc(F)cc(C(F)(F)F)c1 (centres unmarked) [Compound I-363],≤ 0.1
21,Cc1ccccc1C1NC(=O)c2cccc(NCc3nsc4ccccc34)c21 (centres unmarked) [Compound I-145],10 to 100
22,O/N=C(\Nc1cccc2c1C(c1cc(F)ccc1Cl)NC2=S)c1cc(F)cc(C(F)(F)F)c1 (centres unmarked) [Compound I-846],0.5 to 1

row,SMILES,IC50 [µM]
1,O=C1NC(c2cc(F)ccc2Cl)c2c(NC(=O)N3CCc4c(Cl)cccc43)cccc21 (centres unmarked) [Compound I-2442],1 to 10
2,O=C(Nc1cc(-c2ccc3ncnn3c2)cc2c1[C@@H](c1cc(F)ccc1Cl)NC2=O)c1cc(F)cc(OC(F)F)c1 (stereo in doubt) [Compound I-1170],10 to 100
3,O=C(Nc1cc(-c2ccc3nc(C4CC4)nn3c2)cc2c1C(c1cc(F)ccc1Cl)NC2=O)c1cc(F)cc(C(F)(F)F)c1 (centres unmarked) [Compound I-1624],≤ 0.1
4,O=C(Nc1cc(-c2cnc(C(F)(F)F)s2)nc2c1C(c1cc(F)ccc1Cl)NC2=O)c1cc(F)cc(Cl)c1 (centres unmarked) [Compound I-496],≤ 0.1
5,O=C(Nc1cc(-c2cn3ncnc3cc2F)cc2c1[C@H](c1cc(F)ccc1Cl)NC2=O)c1cc(F)cc(C(F)(F)F)c1 (stereo in doubt) [Compound I-1702],≤ 0.1
6,O=C1NC(c2cc(F)ccc2Cl)c2c1cccc2-c1nc2c(C(F)(F)F)cc(F)cc2[nH]1 (centres unmarked) [Compound I-842],0.1 to 0.5
7,CC(C)(O)COc1cc(NC(=O)c2cc(F)cc(Cl)c2)c2c(c1)C(=O)NC2c1cc(F)ccc1Cl (centres unmarked) [Compound I-819],≤ 0.1
8,O=C(Nc1cc(F)cc2c1C(c1cc(F)ccc1Cl)NC2=O)c1cc(F)cc(C(F)(F)F)c1 (centres unmarked) [Compound I-641],≤ 0.1
9,"O=C(Nc1cccc2c1C([C@@H]1CCCC[C@H]1O)NC2=O)c1cc(F)cc(C(F)(F)F)c1 (single isomer, unassigned) [Compound I-1971]",10 to 100
10,"O=C1N[C@H](c2cc(F)ccc2Cl)c2c(NC(=O)N3CCC[C@](O)(C(F)(F)F)C3)cccc21 (single isomer, unassigned) [Compound I-2114]",10 to 100
11,O=C(Nc1cc(Br)cc2c1C(c1cc(F)ccc1Cl)NC2=O)c1cncc(Cl)c1 (centres unmarked) [Compound I-909],1 to 10
12,O=C(Nc1cc(Br)cc2c1C(c1cc(F)ccc1Cl)NC2=O)c1ccccc1C(F)F (centres unmarked) [Compound I-518],10 to 100
13,O=C(Nc1cc(N2CCOCC2)nc2c1C(c1cc(F)ccc1Cl)NC2=O)c1cc(F)cc(C(F)(F)F)c1 (centres unmarked) [Compound I-358],≤ 0.1
14,O=C(NCc1ccccc1)c1cc(Br)cc2c1C(c1cc(F)ccc1Cl)NC2=O (centres unmarked) [Compound I-1979],10 to 100
15,O=C(Nc1cc(Br)cc2c1C(c1cc(F)ccc1Cl)NC2=O)c1cc(Cl)ccc1F (centres unmarked) [Compound I-794],1 to 10
16,Cc1c(F)cccc1[C@@H]1NC(=O)c2cc(Br)cc(NC(=O)c3cc(F)cc(C(F)(F)F)c3)c21 [Compound I-750],0.1 to 0.5
17,Cc1ccccc1C1NC(=O)c2cccc(NC(=O)c3cc(F)cc4cc[nH]c34)c21 (centres unmarked) [Compound I-454],0.1 to 0.5
18,O=C(Nc1cnc(NC2COC2)c2c1C(c1cc(F)ccc1Cl)NC2=O)c1cc(F)cc(C(F)(F)F)c1 (centres unmarked) [Compound I-440],1 to 10
19,"N#CCCc1cc(NC(=O)N2C[C@@H](O)c3cc(F)ccc32)c2c(c1)C(=O)N[C@@H]2c1cc(F)ccc1Cl (single isomer, unassigned) [Compound I-2348]",1 to 10
20,O=C1NC(c2cc(F)ccc2Cl)c2c(NC(=O)N3CCc4ccncc43)cccc21 (centres unmarked) [Compound I-2182],10 to 100
21,Cc1ccccc1C1NC(=O)c2cccc(NC(=O)c3cc(F)n4ccccc34)c21 (centres unmarked) [Compound I-316],0.5 to 1
